pKi: −log10 of the molar value.
Tests used:
[1] = target: T1, rhesus monkey Y2 receptor (Macaca mulatta, UniProt Q9GK74); test: Rhesus monkey Y2 receptor affinity assay (competition binding with human 125I-PYY); set-up: The coding region of the rhesus monkey NPY-Receptors (Y1, Y2, Y4) were sub-cloned into the pcDNA3.1/Zeo vector; expressed in transfected cells; host or cells: CHO cells, stably transfected; conditions: CHO cells stably transfected with the rhesus monkey Y2 receptor; 12 pM human 125I-PYY, 3 hours at 4 C; read-out: Competition binding w 126I-PYY at Y2 (Ki)
T1 sequence (Q9GK74 1-381): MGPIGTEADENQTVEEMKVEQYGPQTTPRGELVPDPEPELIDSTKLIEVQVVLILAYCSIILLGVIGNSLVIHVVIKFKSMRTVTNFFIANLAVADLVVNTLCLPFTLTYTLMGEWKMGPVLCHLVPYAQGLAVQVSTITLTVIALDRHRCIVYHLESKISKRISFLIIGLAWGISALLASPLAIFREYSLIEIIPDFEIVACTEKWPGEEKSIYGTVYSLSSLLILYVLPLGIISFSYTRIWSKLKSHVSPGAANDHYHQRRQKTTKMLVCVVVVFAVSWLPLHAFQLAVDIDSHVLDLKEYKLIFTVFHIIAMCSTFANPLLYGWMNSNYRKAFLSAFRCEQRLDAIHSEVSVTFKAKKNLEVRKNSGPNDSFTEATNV
Protocol: The stable transfected CHO cells are transferred to 48-well culture plates one day prior assay at a density of 2,500 cells per well aiming at 5-8% binding of the radioactive ligand. […] Cells are washed twice in 0.5 ml of ice-cold buffer and 0.5-1 ml of lysis buffer (8 M Urea, 2% NP40 in 3 M acetic acid) is added and the bound radioactivity is counted in a gamma counter. Determinations are made in triplicates.

[2] = target: T1, rhesus monkey Y2 receptor; test: Rhesus monkey Y2 receptor potency assay (phosphatidylinositol turnover, Gqi5); format: cell-based; set-up: The coding region of the rhesus monkey NPY-Receptors (Y1, Y2, Y4) were sub-cloned into the pcDNA3.1/Zeo vector; expressed in transfected cells; host or cells: COS-7 cells, transiently transfected; conditions: COS-7 cells transiently transfected with rhesus monkey Y2 receptor and Gqi5; μM; read-out: IP3 EC50 values at Y2
Protocol: Determinations are made in duplicates. EC50 values were calculated using a standard pharmacological data handling software, Prism 3.0 (graphPad Sofware, San Diego, USA).

pKi [1]: < 6.00
EC50 [2]: > 1 µM
Compound: CC[C@H](C)[C@H](NC(=O)[C@H](Cc1ccc(O)cc1)NC(=O)[C@H](CCCNC(=N)N)NC(=O)[C@H](CCCNC(=N)N)NC(=O)[C@H](CC(C)C)NC(=O)[C@H](CC(=O)O)NC(=O)[C@H](C)NC(=O)[C@H](C)NC(=O)[C@H](Cc1ccc(O)cc1)NC(=O)[C@H](CCC(N)=O)NC(=O)[C@H](C)NC(=O)[C@H](CCSC)NC(=O)[C@H](CCC(N)=O)NC(=O)[C@H](CCC(=O)O)NC(=O)[C@@H]1CCCN1C(=O)[C@@H](NC(=O)[C@H](C)NC(=O)[C@H](CC(N)=O)NC(=O)[C@H](CC(=O)O)NC(=O)CNC(=O)[C@@H]1CCCN1C(=O)[C@H](Cc1ccc(O)cc1)NC(=O)[C@@H](NC(=O)[C@@H]1CCCN1C(=O)[C@H](CCC(=O)O)NC(=O)[C@H](CC(C)C)NC(=O)[C@@H]1CCCN1C(=O)[C@H](C)N)C(C)C)[C@@H](C)O)C(=O)N[C@@H](CC(N)=O)C(=O)N[C@@H](CCSC)C(=O)N[C@@H](CC(C)C)C(=O)N[C@H](C(=O)N[C@@H](CCCNC(=N)N)C(=O)N1CCC[C@H]1C(=O)N[C@@H](CCCNC(=N)N)C(=O)N[C@@H](Cc1ccc(O)cc1)C(N)=O)[C@@H](C)O [PP, Pancreatic Polypeptide]
